{
  "source": "patent US5824771A",
  "about": "“Cyclic CRF agonists” (The Salk Institute for Biological Studies, priority 1997, dated 1998)",
  "key": {"[1]": {"experiment": "Relief of inflammation on administration", "assay_type": "in vivo", "conditions": "administration of the peptide"}, "[2]": {"conditions": "background statement; cited from earlier work"}, "[3]": {"system": "ACTH and β-endorphin secretion", "conditions": "background statements; in vitro and in vivo or iv; cited from earlier work"}, "[4]": {"conditions": "background statements; injected peripherally or iv, mammals; cited from earlier work"}},
  "note": "Entries after “also recorded” stand apart in the source; their conditions may differ. Bridge positions count the residues as written; N and C are the ends. Square brackets hold non-standard residues; d marks the D form. Ends that are not written are not given here. Peptide text beside a SMILES is read from it. Nle = CCCC[C@H](N)C(=O)O",
  "data": [
    {"molecule": "CCCC[C@H](NC(=O)[C@H](CCCCN)NC(=O)[C@H](CCCNC(=N)N)NC(=O)[C@H](CC(C)C)NC(=O)[C@H](CC(C)C)NC(=O)[C@H](CCC(=O)O)NC(=O)[C@@H](CC(C)C)NC(=O)[C@H](CO)NC(=O)[C@H](CC(C)C)NC(=O)[C@H](CC(=O)O)NC(=O)[C@@H](NC(=O)[C@H](CO)NC(=O)[C@@H](NC(=O)[C@H]1CCCN1C(=O)[C@@H]1CCCN1C(C)=O)[C@@H](C)CC)[C@@H](C)CC)C(=O)N[C@H](C(=O)N[C@@H](CCC(=O)O)C(=O)N[C@H](C(=O)N[C@@H](CCC(=O)O)C(=O)N[C@@H](CCCCN)C(=O)N[C@@H](CCC(N)=O)C(=O)N[C@@H](CCC(=O)O)C(=O)N[C@@H](CCCCN)C(=O)N[C@@H](CCC(=O)O)C(=O)N[C@@H](CCCCN)C(=O)N[C@@H](CCC(N)=O)C(=O)N[C@H]1CCC(=O)NCCCC[C@@H](C(=O)N[C@@H](CC(N)=O)C(=O)N[C@@H](CCCNC(=N)N)C(=O)N[C@@H](CC(C)C)C(=O)N[C@@H](CC(C)C)C(=O)N[C@@H](CC(C)C)C(=O)N[C@@H](CC(=O)O)C(=O)N[C@H](C(=O)N[C@H](C(N)=O)[C@@H](C)CC)[C@@H](C)O)NC(=O)[C@@H](Cc2c[nH]cn2)NC(=O)[C@H](C)NC1=O)[C@@H](C)CC)[C@@H](C)CC", "note": "[Example 8 B, (cyclo 29-32)[Ac-Pro^3, D-Pro^4, D-Leu^11, Nle^17, Glu^29, D-His^31, Lys^32]-sauvagine(3-40)] (Ac-P[dP]ISIDLS[dL]ELLRK[Nle]IEIEKQEKEKQEA[dH]KNRLLLDTI-NH2; lactam 27-30)", "values": [
      {"measurement": "relief of inflammation, in words", "setting": "[1]", "value": "relieves inflammation"}
    ]},
    {"molecule": "CCCC[C@H](NC(=O)[C@H](CCC(=O)O)NC(=O)[C@H](CC(C)C)NC(=O)[C@H](CCCC)NC(=O)[C@H](CCC(=O)O)NC(=O)[C@H](CCCNC(=N)N)NC(=O)[C@H](CC(C)C)NC(=O)[C@H](CC(C)C)NC(=O)[C@H](Cc1c[nH]cn1)NC(=O)[C@@H](Cc1ccccc1)NC(=O)[C@@H](NC(=O)[C@H](CC(C)C)NC(=O)[C@H](CC(=O)O)NC(=O)[C@H](CC(C)C)NC(=O)[C@H](CO)NC(=O)[C@@H](NC(=O)[C@H]1CCCN1C(=O)[C@@H]1CCCN1C(C)=O)[C@@H](C)CC)[C@@H](C)O)C(=O)N[C@@H](C)C(=O)N[C@@H](CCCCN)C(=O)N[C@@H](C)C(=O)N[C@@H](CCC(=O)O)C(=O)N[C@@H](CCC(N)=O)C(=O)N[C@@H](CCC(=O)O)C(=O)N[C@@H](C)C(=O)N[C@@H](CCC(=O)O)C(=O)N[C@H]1CCC(=O)NCCCC[C@@H](C(=O)N[C@@H](CC(N)=O)C(=O)N[C@@H](CCCNC(=N)N)C(=O)N[C@@H](CC(C)C)C(=O)N[C@@H](CC(C)C)C(=O)N[C@@H](CC(C)C)C(=O)N[C@@H](CCC(=O)O)C(=O)N[C@@H](CCC(=O)O)C(=O)N[C@@H](C)C(N)=O)NC(=O)[C@@H](Cc2c[nH]cn2)NC(=O)[C@H](C)NC1=O", "note": "[Example 8 C, (cyclo 30-33)[Ac-Pro^4, D-Pro^5, D-Phe^12, Nle^18,21, Glu^30, D-His^32, Lys^33]-α-helical CRF(4-41)] (Ac-P[dP]ISLDLT[dF]HLLRE[Nle]LE[Nle]AKAEQEAEEA[dH]KNRLLLEEA-NH2; lactam 27-30)", "values": [
      {"measurement": "relief of inflammation, in words", "setting": "[1]", "value": "relieves inflammation"}
    ]},
    {"molecule": "CCCC[C@H](NC(=O)[C@H](CCC(=O)O)NC(=O)[C@@H](NC(=O)[C@H](CCCC)NC(=O)[C@H](CC(N)=O)NC(=O)[C@H](CCCNC(=N)N)NC(=O)[C@H](CC(C)C)NC(=O)[C@H](CC(C)C)NC(=O)[C@H](Cc1c[nH]cn1)NC(=O)[C@@H](Cc1ccccc1)NC(=O)[C@@H](NC(=O)[C@H](CC(C)C)NC(=O)[C@H](CC(=O)O)NC(=O)[C@@H](NC(=O)[C@H](CO)NC(=O)[C@@H](NC(=O)[C@H]1CCCN1C(=O)[C@@H]1CCCN1C(C)=O)[C@@H](C)CC)[C@@H](C)CC)[C@@H](C)O)[C@@H](C)CC)C(=O)N[C@@H](C)C(=O)N[C@@H](CCCNC(=N)N)C(=O)N[C@H](C(=O)N[C@@H](CCC(=O)O)C(=O)N[C@@H](CC(N)=O)C(=O)N[C@@H](CCC(=O)O)C(=O)N[C@@H](CCCNC(=N)N)C(=O)N[C@@H](CCC(=O)O)C(=O)N[C@H]1CCC(=O)NCCCC[C@@H](C(=O)N[C@@H](CC(N)=O)C(=O)N[C@@H](CCCNC(=N)N)C(=O)N[C@@H](CCCCN)C(=O)N[C@@H](Cc2ccc(O)cc2)C(=O)N[C@@H](CC(C)C)C(=O)N[C@@H](CC(=O)O)C(=O)N[C@@H](CCC(=O)O)C(=O)N[C@H](C(N)=O)C(C)C)NC(=O)[C@@H](Cc2c[nH]cn2)NC(=O)[C@H](C)NC1=O)[C@@H](C)CC", "note": "[Example 8 E, (cyclo 30-33)[Ac-Pro^4, D-Pro^5, D-Phe^12, Nle^18,21, Glu^30, D-His^32, Lys^33]-sucker urotensin(4-41)] (Ac-P[dP]ISIDLT[dF]HLLRN[Nle]IE[Nle]ARIENEREEA[dH]KNRKYLDEV-NH2; lactam 27-30)", "values": [
      {"measurement": "relief of inflammation, in words", "setting": "[1]", "value": "relieves inflammation"}
    ]},
    {"molecule": "CC[C@H](C)[C@H](NC(=O)[C@@H](NC(=O)[C@H](CC(=O)O)NC(=O)[C@H](CC(C)C)NC(=O)[C@H](CC(C)C)NC(=O)[C@H](CC(C)C)NC(=O)[C@H](CCCNC(=N)N)NC(=O)[C@H](CC(N)=O)NC(=O)[C@H](CC(N)=O)NC(=O)[C@H](C)NC(=O)[C@H](C)NC(=O)[C@H](CCC(N)=O)NC(=O)[C@H](CCC(N)=O)NC(=O)[C@H](CCCCN)NC(=O)[C@H](CCC(=O)O)NC(=O)[C@H](CCCCN)NC(=O)[C@H](CCC(=O)O)NC(=O)[C@H](CCC(N)=O)NC(=O)[C@H](CCCCN)NC(=O)[C@H](CCC(=O)O)NC(=O)[C@@H](NC(=O)[C@H](CCC(=O)O)NC(=O)[C@@H](NC(=O)[C@H](CCSC)NC(=O)[C@H](CCCCN)NC(=O)[C@H](CCCNC(=N)N)NC(=O)[C@H](CC(C)C)NC(=O)[C@H](CC(C)C)NC(=O)[C@H](CCC(=O)O)NC(=O)[C@H](CC(C)C)NC(=O)[C@H](CO)NC(=O)[C@H](CC(C)C)NC(=O)[C@H](CC(=O)O)NC(=O)[C@@H](NC(=O)[C@H](CO)NC(=O)[C@@H](NC(=O)[C@@H]1CCCN1C(=O)[C@@H]1CCCN1C(=O)CNC(=O)[C@@H]1CCC(=O)N1)[C@@H](C)CC)[C@@H](C)CC)[C@@H](C)CC)[C@@H](C)CC)[C@@H](C)O)C(N)=O", "note": "[sauvagine]", "values": [
      {"measurement": "gastric acid production, in words", "setting": "[2]", "value": "inhibit gastric acid production"},
      {"measurement": "stimulation of ACTH and β-endorphin secretion / activities, in words", "setting": "[3]", "value": "stimulate the secretion of ACTH and β-endorphin"},
      {"measurement": "lowering of blood pressure, in words", "setting": "[4]", "value": "lower blood pressure"}
    ]},
    {"molecule": "oCRF: ovine corticotropin releasing factor, a 41-residue amidated peptide; the laboratory Standard (SQEPPISLDLTFHLLREVLEMTKADQLAQQAHSNRKLLDIA-NH2; UniProt P01142 148-188, looked up)", "values": [
      {"measurement": "gastric acid production, in words", "setting": "[2]", "value": "inhibit gastric acid production"},
      {"measurement": "stimulation of ACTH and β-endorphin secretion / activities, in words", "setting": "[3]", "value": "stimulate the secretion of ACTH and β-endorphin; also recorded: stimulate ACTH and β-endorphin-like activities (β-END-Li) in vitro and in vivo"},
      {"measurement": "lowering of blood pressure, in words", "setting": "[4]", "value": "substantially lower blood pressure"}
    ]},
    {"molecule": "r/hCRF: rat/human CRF, a homologous amidated hentetracontapeptide; alternate standard (SEEPPISLDLTFHLLREVLEMARAEQLAQQAHSNRKLMEII-NH2; UniProt P06850 154-194, looked up)", "values": [
      {"measurement": "gastric acid production, in words", "setting": "[2]", "value": "inhibit gastric acid production"},
      {"measurement": "stimulation of ACTH and β-endorphin secretion / activities, in words", "setting": "[3]", "value": "stimulate ACTH and β-endorphin-like activities (β-END-Li) in vitro and in vivo"},
      {"measurement": "lowering of blood pressure, in words", "setting": "[4]", "value": "substantially lower blood pressure"}
    ]}
  ]
}
